Test systems include A549; ACHN; CAKI-1; HCC 2998; K562; KM12; M14; MCF7; MDA-MB-231; MDA-MB-435; MDA-N; Malme-3M; NCI-H23; OVCAR-4; SK-MEL-28; SK-OV-3; SN12C; SNB-75; SR; U-251.
Assay in all cases: NCI-60 cell line screen, 48 h

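Five compound concentrations were applied to cells in 96-well plates for 48 hours; endpoints were derived by simple linear interpolation of the resulting dose-response curve. GI50: concentration for 50% inhibition of growth.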 Calls of active or inactive are those of the source. No stated cut-off is given here; in the data, active = GI50 up to about 1.1 µM and inactive = higher.

`CN(C)S(=O)(=O)c1nc(Cl)c2nc[nH]c2n1`: the GI50 in the assay with A549, in the assay on ACHN, with CAKI-1, with HCC 2998, with K562 and in the assay with KM12 was > 100 µM (inactive) throughout. In addition, the GI50 with M14, in the assay with MCF7, in the assay with MDA-MB-231, in the assay with MDA-MB-435, in the assay on MDA-N and in the assay with Malme-3M was > 100 µM (inactive) each time. Besides, the GI50 in the assay with NCI-H23 was > 100 µM (inactive); in the assay with OVCAR-4, > 100 µM (inactive); in the assay on SK-MEL-28 it was > 100 µM (inactive); in the assay with SK-OV-3, > 100 µM (inactive); with SN12C it was > 100 µM (inactive); in the assay with SNB-75 it was 36.9 µM (inactive). The GI50 with SR and in the assay on U-251 was > 100 µM (inactive) each time.
On to `CC1(C)Oc2ccc(Cl)cc2C12CC2`, for which the GI50 was 18.9 µM (inactive) with A549; 16.3 µM (inactive) in the assay on ACHN; 15.6 µM (inactive) in the assay on CAKI-1; 15.8 µM (inactive) in the assay with HCC 2998; 15.5 µM (inactive) with K562; 17.7 µM (inactive) with KM12. Also, the GI50 in the assay with M14 was 18.8 µM (inactive); in the assay with MCF7, 16.9 µM (inactive); with MDA-MB-231 it was 16.6 µM (inactive); in the assay with MDA-MB-435 it was 15.5 µM (inactive); in the assay on MDA-N, 17.8 µM (inactive); in the assay with Malme-3M it was 23.4 µM (inactive). For the same molecule, the GI50 is 20.1 µM (inactive) in the assay on NCI-H23; 13.8 µM (inactive) with OVCAR-4; 17.9 µM (inactive) in the assay with SK-MEL-28; 21.7 µM (inactive) in the assay on SK-OV-3; 18.8 µM (inactive) in the assay on SN12C; 16.8 µM (inactive) in the assay on SNB-75. Moreover, the GI50 in the assay on SR was 18.1 µM (inactive); with U-251, 15.3 µM (inactive).
On to `COc1cc(/N=N/c2cccc(S(N)(=O)=O)c2)c2ccccc2c1N`, for which the GI50 in the assay on A549 was 14 µM (inactive); with ACHN, 15.5 µM (inactive); in the assay with CAKI-1, 7.06 µM (inactive); in the assay on HCC 2998, 8.04 µM (inactive); in the assay with K562, 12.2 µM (inactive); with KM12 it was 12.9 µM (inactive). The GI50 was 1.91 µM (inactive) with M14; 6.84 µM (inactive) in the assay on MCF7; 10.5 µM (inactive) with MDA-MB-231; 2 µM (inactive) in the assay with MDA-MB-435; 2.41 µM (inactive) with MDA-N; 1.7 µM (inactive) in the assay on Malme-3M. In addition, the GI50 was 2.02 µM (inactive) in the assay with NCI-H23; 13.4 µM (inactive) with OVCAR-4; 7.11 µM (inactive) with SK-MEL-28; 15.6 µM (inactive) in the assay with SK-OV-3; 8.89 µM (inactive) in the assay with SN12C; 1.98 µM (inactive) with SNB-75. Moreover, the GI50 in the assay on SR is 11.3 µM (inactive); with U-251, 7.48 µM (inactive).
In the case of `Cc1ccc(-c2nc3cc(Cl)ccc3[nH]2)cc1`, the GI50 in the assay with A549 is 83.4 µM (inactive); in the assay on ACHN, 97.5 µM (inactive); in the assay on CAKI-1, > 100 µM (inactive); with HCC 2998 it was 53.2 µM (inactive); in the assay with K562 it was 45.5 µM (inactive); in the assay on KM12 it was 46.8 µM (inactive). The GI50 was > 100 µM (inactive) in the assay on M14; > 100 µM (inactive) in the assay with MCF7; > 100 µM (inactive) with MDA-MB-231; 54.1 µM (inactive) in the assay on MDA-MB-435; 42.5 µM (inactive) with MDA-N; > 100 µM (inactive) in the assay with Malme-3M. Besides, the GI50 in the assay with NCI-H23, in the assay on OVCAR-4, in the assay on SK-MEL-28, in the assay on SK-OV-3, in the assay on SN12C and with SNB-75 was > 100 µM (inactive) throughout. Besides, the GI50 was 3.38 µM (inactive) in the assay on SR and > 100 µM (inactive) in the assay with U-251.
Take `CCOC(CN=C=S)OCC`: the GI50 in the assay with A549 is > 10 µM (inactive); in the assay with ACHN, > 10 µM (inactive); in the assay with CAKI-1 it was > 10 µM (inactive); with HCC 2998, > 10 µM (inactive); with K562, 7.01 µM (inactive); in the assay on KM12 it was > 10 µM (inactive). The GI50 with M14 was > 10 µM (inactive); with MCF7, 9.27 µM (inactive); with MDA-MB-231, > 10 µM (inactive); in the assay on MDA-MB-435 it was > 10 µM (inactive); in the assay on MDA-N, > 10 µM (inactive); in the assay on Malme-3M, > 10 µM (inactive). The GI50 in the assay on NCI-H23, in the assay on OVCAR-4, in the assay on SK-MEL-28, in the assay with SK-OV-3, in the assay on SN12C and in the assay with SNB-75 was > 10 µM (inactive) each time. In addition, the GI50 in the assay on SR was 2.52 µM (inactive); with U-251 it was > 10 µM (inactive).
In the case of `COc1nc2nccnc2c(=O)n1C`, the GI50 in the assay on A549, in the assay with ACHN, with CAKI-1, in the assay on HCC 2998, in the assay on K562 and with KM12 was > 10 µM (inactive) in each case. For the same molecule, the GI50 with M14, with MCF7, in the assay on MDA-MB-231, in the assay on MDA-MB-435, with MDA-N and with Malme-3M was > 10 µM (inactive) in each case. The GI50 in the assay on NCI-H23, in the assay with OVCAR-4, in the assay with SK-MEL-28, in the assay with SK-OV-3, in the assay on SN12C and in the assay with SNB-75 was > 10 µM (inactive) in each case. The GI50 with SR and in the assay on U-251 was > 10 µM (inactive) in each case.
On to `CCCC(=O)OC1CC(n2cc(F)c(=O)[nH]c2=O)OC1CO` (stereo not given), for which the GI50 was 0.0538 µM (active) with A549; 0.0506 µM (active) in the assay with ACHN; 0.141 µM (active) in the assay on CAKI-1; 0.0202 µM (active) in the assay on HCC 2998; 1.74 µM (inactive) in the assay with K562; > 10 µM (inactive) in the assay with KM12. Besides, the GI50 in the assay on M14 is 0.33 µM (active); in the assay on MCF7 it was 0.036 µM (active); in the assay with MDA-MB-231, > 8.95 µM (inactive); in the assay on MDA-MB-435, 2.79 µM (inactive); with MDA-N, 1.63 µM (inactive); in the assay on Malme-3M, > 8.79 µM (inactive). The GI50 is 0.0682 µM (active) in the assay with NCI-H23; > 10 µM (inactive) with OVCAR-4; > 7.21 µM (inactive) in the assay on SK-MEL-28; 4.08 µM (inactive) with SK-OV-3; 0.317 µM (active) in the assay on SN12C; 1.53 µM (inactive) in the assay with SNB-75. Further, the GI50 is 0.0493 µM (active) in the assay on SR and > 5.24 µM (inactive) in the assay with U-251.
As to `CCN1C(=O)/C(=C\Nc2ccccc2)S/C1=N/Nc1ncc(CC(=O)Nc2ccccc2C)s1`, the GI50 in the assay on A549 was 58.2 µM (inactive); in the assay with ACHN it was 83.8 µM (inactive); in the assay on CAKI-1, > 100 µM (inactive); with HCC 2998, 91 µM (inactive); in the assay on K562 it was 43.6 µM (inactive); in the assay with KM12 it was 74 µM (inactive). Also, the GI50 in the assay on M14 was > 100 µM (inactive); in the assay on MCF7, 82.2 µM (inactive); in the assay with MDA-MB-231, > 100 µM (inactive); with MDA-MB-435, > 100 µM (inactive); with MDA-N, > 100 µM (inactive); in the assay with Malme-3M, > 100 µM (inactive). Also, the GI50 in the assay with NCI-H23 was > 100 µM (inactive); with OVCAR-4, > 100 µM (inactive); with SK-MEL-28 it was > 100 µM (inactive); in the assay with SK-OV-3, > 100 µM (inactive); with SN12C, > 100 µM (inactive); with SNB-75, 28.4 µM (inactive). The GI50 in the assay with SR is 38.2 µM (inactive); with U-251 it was 60.5 µM (inactive).
On to `COc1cc2c(cc1O)[C@]1(Cc3ccc4c(c3C1=O)OCO4)N(C)CC2`, for which the GI50 in the assay with A549, in the assay with ACHN, in the assay with CAKI-1, with HCC 2998, in the assay with K562 and in the assay on KM12 was > 100 µM (inactive) in each case. The GI50 in the assay on M14, with MCF7, in the assay with MDA-MB-231, in the assay with MDA-MB-435, in the assay with MDA-N and with Malme-3M was > 100 µM (inactive) in each case. Also, the GI50 was > 100 µM (inactive) in the assay with NCI-H23; > 100 µM (inactive) with OVCAR-4; > 100 µM (inactive) in the assay with SK-MEL-28; > 100 µM (inactive) in the assay with SK-OV-3; > 100 µM (inactive) with SN12C; 73.5 µM (inactive) in the assay with SNB-75. The GI50 in the assay with SR and with U-251 was > 100 µM (inactive) in each case.
As to `COc1cc2cc(C(=O)N3CC(CCl)c4c3cc(N)c3ccccc43)[nH]c2c(OC)c1OC` (stereo not given), the GI50 in the assay with A549, in the assay with ACHN, in the assay on CAKI-1, in the assay on HCC 2998, in the assay on K562 and in the assay with KM12 was < 0.01 µM (active) throughout. For the same molecule, the GI50 with M14, with MCF7, in the assay with MDA-MB-231, in the assay on MDA-MB-435, in the assay on MDA-N and with Malme-3M was < 0.01 µM (active) in each case. Also, the GI50 in the assay with NCI-H23, in the assay with OVCAR-4, in the assay on SK-MEL-28, with SK-OV-3, in the assay on SN12C and in the assay with SNB-75 was < 0.01 µM (active) each time. For the same molecule, the GI50 with SR and in the assay with U-251 was < 0.01 µM (active) each time.
